Consider one compound from publication PMC5908784, “Extracellular loops 2 and 3 of the calcitonin receptor selectively modify agonist binding and efficacy” (Biochemical Pharmacology, 2018).

Usually Ki stands for the equilibrium dissociation constant of an inhibitor or competing ligand from its target. Low readings indicate higher affinity, high ones lower affinity.

Holding throughout (experiment): Heterologous whole cell competition binding
Details in all cases: heterologous competition of 125I-sCT(8-32), whole cells, mean ± S.E.M., SEM

For assay [1], the target named is T1, hCTR R281A (Homo sapiens, UniProt P30988, R281A).
T1 construct: expressed in transfected cells
T1 sequence (P30988 25-474 R281A): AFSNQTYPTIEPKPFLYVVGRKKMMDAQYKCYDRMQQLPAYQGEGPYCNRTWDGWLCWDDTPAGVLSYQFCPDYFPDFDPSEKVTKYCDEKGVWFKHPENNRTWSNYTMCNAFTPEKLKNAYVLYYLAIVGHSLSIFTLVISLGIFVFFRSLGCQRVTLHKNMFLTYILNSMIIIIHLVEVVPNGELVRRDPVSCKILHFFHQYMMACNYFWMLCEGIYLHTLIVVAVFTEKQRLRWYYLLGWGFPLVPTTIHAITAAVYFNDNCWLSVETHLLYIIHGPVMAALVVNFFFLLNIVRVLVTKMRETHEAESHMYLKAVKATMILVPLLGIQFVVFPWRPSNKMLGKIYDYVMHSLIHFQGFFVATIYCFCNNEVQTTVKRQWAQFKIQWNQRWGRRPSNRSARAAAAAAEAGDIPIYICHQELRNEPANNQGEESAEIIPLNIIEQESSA
Summed up:
(§1)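 Reported pKi values come from whole-cell displacement of a radiolabelled tracer, incubated overnight and quantified by gamma counting after washing out free ligand, with correction for tracer occupancy (Cheng-Prusoff).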

Assay [2] deals with T2, hCTR P363A (Homo sapiens, UniProt P30988, P363A).
T2 construct: expressed in transfected cells
T2 sequence (P30988 25-474 P363A): T1 sequence (P30988 25-474 R281A) with A257R, P339A
The method, boiled down:
as §1

For assay [3], the target named is T3, hCTR P360A (Homo sapiens, UniProt P30988, P360A).
T3 construct: expressed in transfected cells
T3 sequence (P30988 25-474 P360A): T1 sequence (P30988 25-474 R281A) with A257R, P336A
Summed up:
as §1

Assay [4] has as its target T4, hCTR V358A (Homo sapiens, UniProt P30988, V358A).
T4 construct: c-Myc (N); expressed in transfected cells
T4 sequence (P30988 25-474 V358A): T1 sequence (P30988 25-474 R281A) with A257R, V334A
Summed up:
as §1

Assay [5] addresses T5, hCTR Y284A (Homo sapiens, UniProt P30988, Y284A).
T5 construct: expressed in transfected cells
T5 sequence (P30988 25-474 Y284A): T1 sequence (P30988 25-474 R281A) with A257R, Y260A
Summed up:
as §1

The structures appear in SMILES notation. Where a chain is given by its changes, count along the chain named. Where a SMILES comes first, the peptide text is derived from it. Bridges are numbered along the chain shown (N, C = ends).

As for `CSCC[C@H](NC(=O)CNC(=O)[C@H](CO)NC(=O)[C@H](Cc1ccccc1)NC(=O)[C@H](CCCNC(=N)N)NC(=O)[C@H](Cc1c[nH]cn1)NC(=O)[C@H](Cc1ccccc1)NC(=O)[C@H](CC(N)=O)NC(=O)[C@H](CC(N)=O)NC(=O)[C@H](CC(C)C)NC(=O)[C@H](CC(N)=O)NC(=O)[C@H](CCCNC(=N)N)NC(=O)[C@H](Cc1c[nH]c2ccccc12)NC(=O)[C@H](Cc1ccc(O)cc1)NC(=O)[C@H](C)NC(=O)[C@H](CO)NC(=O)[C@H](CC(C)C)NC(=O)[C@@H](NC(=O)[C@@H]1CSSC[C@H](N)C(=O)N[C@@H](CO)C(=O)N[C@@H](CC(N)=O)C(=O)N[C@@H](CC(C)C)C(=O)N[C@@H](CO)C(=O)N[C@@H]([C@@H](C)O)C(=O)N1)C(C)C)C(=O)NCC(=O)N[C@@H](Cc1ccccc1)C(=O)NCC(=O)N1CCC[C@H]1C(=O)N[C@@H](CCC(=O)O)C(=O)N[C@H](C(=O)N1CCC[C@H]1C(N)=O)[C@@H](C)O` [pCT] (H-CSNLSTCVLSAYWRNLNNFHRFSGMGFGPETP-NH2; disulfide 1-7), the Ki in assay [1] is 66.1 nM; in assay [2] it was 55 nM; in assay [3], 50.1 nM; in assay [4] it was 14.5 nM; in assay [5], 14.5 nM.
